Source: US20210196779A1, “Compositions and Methods for Treating Steroid Hormone-Related Diseases or Disorders” (YALE UNIVERSITY, priority 2018, published 2021)
Like-named read-outs stand apart in the source and are kept apart here.

Tests used:
22Rv1 cells = assay: Cell growth assay, 22Rv1 prostate cancer cells; format: cell-based; settings: Homo sapiens, 22Rv1, 96 h, 4 days, standardized to equivalent concentration of Y1830, read-out: IC50 for the inhibition of growth
Method: (§1) 22RV1 or LNCaP prostate cancer cells were grown in corning T75 cell culture flasks in RPMI1640 medium supplemented with 5% FBS, 50 μg/ml Kanamycin in a 37° C., 5% CO2 incubator.
(§2) 20,000 cells in 1 ml of medium (phenol red free RPMI1640, 5% charcoal-dialysis FBS, 50 μg/ml Kanamyacin) were seeded per well of a 24-well plate and incubated in a 37° C. incubator with 5% CO2 overnight. Different concentrations of herbal extract were added to each well in order to have final concentrations from 50 μg/ml to 500 μg/ml. […] For glucocorticoid receptor overexpressed LNCaP cells, dexamethasone (50 nM) was used to stimulate glucocorticoid receptor activity. For all breast cancer cells, E2 (10 nM) was used to stimulate ER activity. Control medium without any steroid hormone was used as a control setting. After 4 days of incubation, cells were fixed and stained for 2 h with 0.5% methylene blue in 50% ethanol, followed by washing with tap water to remove unbound dye. Plates were air dried and then cells were dissolved in 1% sarkosyl (sodium lauroyl sarcosinate) by shaking at room temperature for 3 h. […] All experiments were performed in triplicate wells and were repeated at least three times.

LNCaP cells = assay: Cell growth assay, LNCaP prostate cancer cells; format: cell-based; settings: for IC50: Homo sapiens, LNCaP, 96 h, 4 days, standardized to equivalent concentration of Y1830, read-out: IC50 for the inhibition of growth
Method: as §1, §2

[1] = system: LNCaP-GR (GR overexpressing) cells; assay: Cell growth assay, GR overexpressing LNCaP cells; format: cell-based; settings: for IC50: Homo sapiens, LNCaP, 96 h, 4 days, standardized to equivalent concentration of Y1830, read-out: IC50 for the inhibition of growth
Method: as §2

PC3 cells = assay: Cell growth assay, PC3 cells; format: cell-based; settings: for IC50: Homo sapiens, PC-3, 96 h, 4 days, standardized to equivalent concentration of Y1830, read-out: IC50 for the inhibition of growth
Method: as §2

androgen receptor (AR) = assay: PSA-luciferase reporter assay, DHT induced, 22RV1 cells; format: cell-based; settings: equivalent doses, 22RV1 cells in the presence of DHT
Method: 22RV1 or LNCaP prostate cancer cells were used in the screening study. 22RV1 or LNCaP cell lines were stably transfected with PSA promoter-PGL4.2 luciferase reporter. DHT (25 nM) was used to stimulate androgen receptor activity for 24 h.
Reporter cells were treated with herbal extracts at 30, 100, 300, and 1000 μg/ml for 24 h in a 37° C.-CO2 incubator. DHT (25 nM) was used to stimulate androgen receptor activity. Dexamethasone (50 nM) was used to stimulate glucocorticoid receptor activity Cells were lysed using luciferase lysis buffer after which luciferase buffer with luciferin was added to generate luminescence. Luminescence was recorded using a luminescence microplate reader.

AR [2] = assay: Western blot, 22RV1 cells, AR; format: cell-based; settings: presence or absence of DHT, 24 h
Method: (§3) Western blot analysis was used to determine the protein expression using protein specific antibodies.
(§4) Total cell lysis was conducted using 2×SDS sample buffer (62.5 mM Tris-HCl, 2% SDS, 10% glycerol, 50 mM DTT, and 0.05% bromophenol blue). The samples were sonicated for 10 s to shear DNA. Cell nuclei were isolated using Tris buffer saline with 0.4% NP40. Cell extracts were then electrophoresed through 10% SDS-polyacrylamide gels and transferred to 0.2 μm nitrocellulose membranes (Bio-Rad Laboratories, Hercules, Calif.) with a Miniprotein II transferring apparatus (Bio-Rad). The membranes were blocked and probed in TBS-T buffer (1×TBS buffer, 0.2% Tween 20) containing 5% non-fat milk. Monoclonal rabbit anti-AR (1:5000), was used to detect androgen receptor (Abcam #133273), Glucocorticoid Receptor (D8H2) XP® Rabbit mAb #3660, ERa Antibody (F-10): sc-8002, BRD4 (E2A7X) Rabbit mAb #13440, Brd2 (D89B4) Rabbit mAb #5848, PARP (46D11) Rabbit mAb #9532, Acetyl-Histone H3 (Lys27) (D5E4) XP® Rabbit mAb #8173 and a monoclonal actin antibody diluted 1:2500 (Sigma, St. Louis, Mo.) was used to detect β-actin as the internal control to confirm equal protein loading. […] Enhanced chemiluminescence reagents (Perkin-Elmer Life Science Products, Boston, Mass.) were used to visualize the immunoreactive bands and the densities of protein bands were scanned analyzed using ImageJ software from the NIH.

AR-V (truncated AR) = assay: Western blot, 22RV1 cells, AR-V; format: cell-based; settings: presence or absence of DHT, 24 h
Method: as §3, §4

GR [3] = assay: Western blot, 22RV1 cells, GR; format: cell-based; settings: presence or absence of DHT, 24 h
Method: as §3, §4

cyclin D1 (cycD1) [4] = assay: Western blot, 22RV1 cells, cyclin D1; format: cell-based; settings: presence or absence of DHT, 24 h
Method: as §3, §4

beta-catenin (b-cat) [5] = assay: Western blot, 22RV1 cells, beta-catenin; format: cell-based; settings: presence or absence of DHT, 24 h
Method: as §3, §4

estrogen receptor ERa = target: T1, estrogen receptor ERa (Homo sapiens, UniProt P03372); assay: Western blot, MCF7 cells, ERa; format: cell-based; settings: presence or absence of E2, 24 h
T1 construct: endogenous in cells; host or cells: MCF7
Method: as §3, §4

estrogen receptor ERb = assay: Western blot, MCF7 cells, ERb; format: cell-based; settings: presence or absence of E2, 24 h
Method: as §3, §4

AR [6] = target: T2, AR (Homo sapiens, UniProt P10275); assay: Western blot, MCF7 cells, AR; format: cell-based; settings: presence or absence of E2, 24 h
T2 construct: endogenous in cells; host or cells: MCF7
Method: as §3, §4

[7] = system: progesterone receptor PR (a and b); assay: Western blot, MCF7 cells, PR; format: cell-based; settings: presence or absence of E2, 24 h
Method: as §3, §4

GR [8] = assay: Western blot, MCF7 cells, GR; format: cell-based; settings: 24 h
Method: as §3, §4

cyclin D1 (cycD1) [9] = assay: Western blot, MCF7 cells, cyclin D1; format: cell-based; settings: presence or absence of E2, 24 h
Method: as §3, §4

beta-catenin (b-cat) [10] = assay: Western blot, MCF7 cells, beta-catenin; format: cell-based; settings: presence or absence of E2, 24 h
Method: as §3, §4

AR (stimulated with DHT) = AR (stimulated with DHT) (Homo sapiens, UniProt P10275, T878A); assay: AR driven luciferase activity (DHT) in LNCaP / LNCaP-GR cells; settings: LNCaP / LNCaP-GR luciferase reporter cells
Chain of AR (stimulated with DHT) (P10275 whole entry T878A): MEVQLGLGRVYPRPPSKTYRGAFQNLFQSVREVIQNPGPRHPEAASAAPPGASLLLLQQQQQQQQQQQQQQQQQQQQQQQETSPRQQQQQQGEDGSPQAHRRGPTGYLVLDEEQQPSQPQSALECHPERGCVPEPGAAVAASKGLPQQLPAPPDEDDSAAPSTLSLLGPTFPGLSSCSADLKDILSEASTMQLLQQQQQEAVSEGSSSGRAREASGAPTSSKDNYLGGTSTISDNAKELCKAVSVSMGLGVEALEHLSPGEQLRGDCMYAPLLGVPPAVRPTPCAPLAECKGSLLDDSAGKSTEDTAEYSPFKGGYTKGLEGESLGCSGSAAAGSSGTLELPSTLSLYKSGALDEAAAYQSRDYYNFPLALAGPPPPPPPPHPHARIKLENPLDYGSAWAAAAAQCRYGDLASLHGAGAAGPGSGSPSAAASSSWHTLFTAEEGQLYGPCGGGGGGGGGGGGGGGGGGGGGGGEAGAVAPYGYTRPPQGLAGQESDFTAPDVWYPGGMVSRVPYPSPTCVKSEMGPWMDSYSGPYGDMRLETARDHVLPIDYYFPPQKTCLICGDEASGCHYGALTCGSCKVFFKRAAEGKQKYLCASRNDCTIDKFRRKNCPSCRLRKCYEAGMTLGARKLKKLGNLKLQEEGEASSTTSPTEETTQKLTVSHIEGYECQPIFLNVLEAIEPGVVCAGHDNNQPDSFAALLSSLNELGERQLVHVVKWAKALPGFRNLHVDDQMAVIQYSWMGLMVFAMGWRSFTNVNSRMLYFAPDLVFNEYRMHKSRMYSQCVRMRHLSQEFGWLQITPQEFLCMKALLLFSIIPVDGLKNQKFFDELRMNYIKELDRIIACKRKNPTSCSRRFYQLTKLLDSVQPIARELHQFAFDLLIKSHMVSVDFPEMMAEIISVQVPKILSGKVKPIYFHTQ
Method: Both LNCaP and GR overexpressing LNCaP cells were carrying luciferase reporters with AR response elements.
Reporter cells were treated with herbal extracts at 30, 100, 300, and 1000 μg/ml for 24 h in a 37° C.-CO2 incubator. […] Dexamethasone (50 nM) was used to stimulate glucocorticoid receptor activity Cells were lysed using luciferase lysis buffer after which luciferase buffer with luciferin was added to generate luminescence. Luminescence was recorded using a luminescence microplate reader.

T1 sequence (P03372 whole entry): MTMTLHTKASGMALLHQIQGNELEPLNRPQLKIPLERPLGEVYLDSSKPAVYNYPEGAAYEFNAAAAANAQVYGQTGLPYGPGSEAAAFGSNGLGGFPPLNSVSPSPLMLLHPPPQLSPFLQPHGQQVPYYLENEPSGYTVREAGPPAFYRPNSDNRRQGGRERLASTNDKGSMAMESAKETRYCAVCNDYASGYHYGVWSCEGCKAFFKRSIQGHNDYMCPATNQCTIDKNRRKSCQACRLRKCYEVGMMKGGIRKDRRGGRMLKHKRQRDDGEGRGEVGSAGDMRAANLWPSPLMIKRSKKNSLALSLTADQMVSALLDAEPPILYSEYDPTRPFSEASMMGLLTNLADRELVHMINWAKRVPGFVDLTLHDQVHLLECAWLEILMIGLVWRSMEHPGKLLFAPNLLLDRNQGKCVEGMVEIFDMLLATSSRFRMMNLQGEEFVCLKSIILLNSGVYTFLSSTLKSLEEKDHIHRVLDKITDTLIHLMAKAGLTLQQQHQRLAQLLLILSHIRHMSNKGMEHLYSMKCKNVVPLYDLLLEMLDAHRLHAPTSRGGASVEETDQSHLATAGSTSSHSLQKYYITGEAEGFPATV
T2 sequence (P10275 whole entry): as the sequence (P10275 whole entry T878A) above, with A878T counted along it

SMILES	IC50 (22Rv1 cells; 22Rv1, no DHT/DEX) [µg/mL]	IC50 (22Rv1 cells; 22Rv1 w/DEX 50 nM) [µg/mL]	IC50 (22Rv1 cells; 22Rv1 w/DHT 25 nM) [µg/mL]	IC50 (LNCaP cells; LNCaP w/DHT 2 nM) [µg/mL]	IC50 (LNCaP cells; no DHT) [µg/mL]	IC50 ([1]; LNCaP-GR w/DEX 50 nM) [µg/mL]	IC50 ([1]; LNCaP-GR w/DHT 2 nM) [µg/mL]	IC50 ([1]; LNCaP-GR, no DHT/DEX) [µg/mL]	IC50 (PC3 cells; PC3, no DEX) [µg/mL]	IC50 (PC3 cells; PC3 w/DEX 50 nM) [µg/mL]	inhibitory effect on AR mediated transcriptional response (androgen receptor (AR))	AR protein expression (AR [2])	AR-V protein expression (AR-V (truncated AR))	GR protein expression (GR [3])	cyclin D1 protein expression (cyclin D1 (cycD1) [4])	beta-catenin protein expression (beta-catenin (b-cat) [5])	ERa protein expression (estrogen receptor ERa)	ERb protein expression (estrogen receptor ERb)	AR protein expression (AR [6])	PR (a and b) protein expression [7]	further results
Cc1c(OC2OC(CO)C(O)C(O)C2OC2OC(C)C(O)C(O)C2O)cc2c(c1O)C(=O)c1ccc(O)cc1C2=O [RG, 1,3,6-Trihydroxy-2-methyl-9,10-anthracenedione 3-O-[α-L-Rhamnopyranosyl-(1→2)-β-D-glucopyranoside]]	> 500	> 500	> 500	> 500	> 500	> 500	> 500	> 500	> 500	> 500	very weak activity	did not have impact	did not have impact	did not have impact	did not have impact	did not have impact	did not have any impact	did not have any impact	did not have any impact	did not have any impact	GR protein expression (GR [8]): did not have any impact; cyclin D1 protein expression (cyclin D1 (cycD1) [9]): did not have any impact; beta-catenin protein expression (beta-catenin (b-cat) [10]): did not have any impact
CC(=O)OCC1OC(Oc2cc3c(c(O)c2C)C(=O)c2ccc(O)cc2C3=O)C(OC2OC(C)C(O)C(O)C2O)C(O)C1O [RGA, 1,3,6-Trihydroxy-2-methyl-9,10-anthracenedione 3-O-[α-L-Rhamnopyranosyl-(1→2)-6-O-acetyl-β-D-glucopyranoside]]	306	220	253	50	> 500	60	40	220	146	320	very similar anti-AR activity as the Y1830 water extract	downregulate	downregulate	but not GR	strong inhibitory effect	moderate inhibitory effect	downregulate	slightly downregulate	downregulate	downregulate	susceptibility of LNCaP cell growth to treatment (in words) (LNCaP cells; in the absence of DHT): not be susceptible; sensitivity of LNCaP cell growth to treatment (in words) (LNCaP cells; in the presence of DHT): more sensitive; inhibition of LNCaP-GR cell growth (in words) ([1]; in the presence of either DHT or DEX): effectively inhibited; inhibition of PC3 cell growth (in words) (PC3 cells; with or without DEX): inhibited PC3 cell growth, but less effectively in the presence of DEX; GR protein expression (GR [8]): did not inhibited; cyclin D1 protein expression (cyclin D1 (cycD1) [9]): strong inhibitory effects; beta-catenin protein expression (beta-catenin (b-cat) [10]): moderate inhibitory effect; inhibition of DHT induced transcriptional response (AR (stimulated with DHT)): effectively inhibit
